Measurements as given in the supplement of paper PMC3493320.

System: NCI-H295R
Test: IC50 (antiproliferative, ATP content)
Details: 48 h
Summary of the method: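 Following overnight culture of adrenocortical carcinoma cells (1500 per well) in 1536-well plates with serum-free ITS-supplemented DMEM, library compounds were pin-transferred at 8 final concentrations from 0.6 nM to 46 µM. Incubation lasted 48 h at 37 °C, 5% CO2, and the CellTiter-Glo signal was read after 20 min at room temperature. Data were fitted with a four-parameter logistic model. Each IC50 came from that fit after normalisation to vehicle and positive-control wells, and compounds without a concentration response were reported as above the top dose.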

Row | IC50 [µM] | SMILES
1 | > 46 | CC(C)CCC[C@@H](C)[C@H]1CC[C@H]2[C@@H]3CC[C@@H]4C[C@H](O)CC[C@]4(C)[C@H]3CC[C@]12C
2 | > 46 | O=C(O)c1ccc[n+]([O-])c1
3 | > 46 | CCOc1ccc(S(=O)(=O)O)c2cccnc12
4 | > 46 | O=C(CSC#N)O[C@H]2[C@]1(C)CC[C@H](C2)[C@](C)1C
5 | > 46 | Cc1ncc([N+](=O)[O-])n1CCO
6 | > 46 | O=C(CO)[C@@H](O)[C@H](O)[C@@H](O)C(=O)[O-].O=C(CO)[C@@H](O)[C@H](O)[C@@H](O)C(=O)[O-].[Ca+2]
7 | > 46 | N#Cc1ccc(C(c2ccc(C#N)cc2)n2cncn2)cc1
8 | > 46 | CON=C(C(=O)N[C@@H]1C(=O)N2C(C(=O)[O-])=C(CSc3nc(C)c(CC(=O)[O-])s3)CS[C@H]12)c1csc(N)n1.[Na+].[Na+]
9 | > 46 | c1ccc2[nH]c(-c3cscn3)nc2c1
10 | > 46 | CNC(=O)[C@H](Cc1c[nH]c2ccccc12)NC(=O)[C@@H](CC(=O)NO)CC(C)C
11 | > 46 | Nc1nnc(-c2cccc(Cl)c2Cl)c(N)n1
12 | > 46 | CN(C)[C@@H]1C(O)=C(C(N)=O)C(=O)[C@@]2(O)C(O)=C3C(=O)c4c(O)cccc4[C@@](C)(O)[C@H]3C[C@@H]12.Cl
13 | > 46 | CN(CCO)CC(O)Cn1cnc2c1c(=O)n(C)c(=O)n2C.O=C(O)c1cccnc1 (stereo not given)
14 | > 46 | CCN1CCCC(OC(=O)C(c2ccccc2)c2ccccc2)C1.Cl (stereo not given)
15 | > 46 | NS(=O)(=O)c1cc(C2(O)NC(=O)c3ccccc32)ccc1Cl (stereo not given)
16 | > 46 | Clc1ccc2nsnc2c1NC1=NCCN1
17 | > 46 | Cc1ccc(S(=O)(=O)NC(=O)NN2CCCCCC2)cc1

More lines, now with the values behind:

Row | SMILES | IC50 [µM]
18 | C[C@@]1(CC2)[C@H](OC(C)=O)C[C@H]2[C@](C)1C | > 46
19 | CN(C(=O)CCCOc1ccc2[nH]c(=O)ccc2c1)C1CCCCC1 | > 46
20 | O=C(CCCCCCCCCCCCC1CCCC1)Nc1ccc(S(=O)(=O)c2ccc(NC(=O)CCCCCCCCCCCCC3CCCC3)cc2)cc1 | > 46
21 | C[C@H](C(=O)[O-])c1cccc(Oc2ccccc2)c1.C[C@H](C(=O)[O-])c1cccc(Oc2ccccc2)c1.O.O.[Ca+2] | > 46
22 | CC=CC=CC(=O)O | > 46
23 | FC1(F)C(F)(F)C(F)(F)C2(F)C(F)(F)C(F)(F)C(F)(F)C(F)(F)C2(F)C1(F)F (stereo not given) | > 46
24 | CCCC1CCCCN1 (stereo not given) | > 46
25 | Cc1ccc(S(=O)(=O)NC(=O)NC2CCCC2)cc1 | > 46
26 | CC(C)CCON=O | > 46
27 | COC(=O)CCC[N+](C)(C)C.[Cl-] | > 46
28 | O=C3[C@@H]4[C@]([C@](CC6)(C)[C@H]([C@@]5=COC=C5)O3)(O4)[C@@]2(C)[C@@]6([H])[C@@]1(CO7)[C@H](CC7=O)OC(C)(C)[C@@]([H])1CC2=O | > 46
29 | NC(Cc1ccccc1)C(=O)O (stereo not given) | > 46
30 | NS(=O)(=O)c1ccc(C(=O)O)cc1 | > 46
31 | Oc1ncnc2[nH]ncc12 | > 46
32 | Br.CC(N)Cc1ccc(O)cc1 (stereo not given) | > 46
33 | Nc1cc(-c2ccncc2)c[nH]c1=O | > 46
34 | O=C1N2[C@@](SC(C)(C)[C@@H]2[C@@](O)=O)([H])[C@@]([H])1NC([C@H](NC([C@H](N)CC(NC)=O)=O)[C@@]3=CC=C(O)C=C3)=O | > 46
35 | O=C1C2CC3CC1CC(O)(C3)C2 | > 46
36 | CC(C)NCC(O)c1ccc(N)c(C#N)c1 (stereo not given) | > 46
37 | N[C@@H](Cc1ccc(O)cc1)C(=O)O | > 46
38 | CCOC(=O)[N-]c1c[n+](N2CCOCC2)no1 | > 46
39 | COc1ccc2c3c1O[C@H]1C(=O)CC[C@H]4[C@@H](C2)N(C)CC[C@]314.COc1ccc2c3c1O[C@H]1C(=O)CC[C@H]4[C@@H](C2)N(C)CC[C@]314.O=P(O)(O)O.O=P(O)(O)O.O=P(O)(O)O | > 46
40 | CCC1Nc2cc(Cl)c(S(N)(=O)=O)cc2S(=O)(=O)N1 (stereo not given) | > 46
